Laboratory results as given in ChEMBL document CHEMBL1201862, “PubChem BioAssay data set” (2004).
Activity calls are given as the source filed them. Cut-off read from the data, not from the text of the source, for most assays here: actives have a measured EC50 and inactives only a lower limit.

Key:
[1] = biological target: T1, Heat shock factor protein 1 (Mus musculus, UniProt P38532); assay: enhancement of HSF1-driven luciferase signal – cell-based, NIH3T3, luminescence, dose retest, confirmation (AID 435004); format: functional;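 note: stress induced by proteasome inhibitor MG132 added 30 min after compound; luciferase reporter driven by HSF1 response element in NIH3T3 cells; actives raise luminescence as potentiators of the MG132 stress response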
T1 sequence (P38532 whole entry): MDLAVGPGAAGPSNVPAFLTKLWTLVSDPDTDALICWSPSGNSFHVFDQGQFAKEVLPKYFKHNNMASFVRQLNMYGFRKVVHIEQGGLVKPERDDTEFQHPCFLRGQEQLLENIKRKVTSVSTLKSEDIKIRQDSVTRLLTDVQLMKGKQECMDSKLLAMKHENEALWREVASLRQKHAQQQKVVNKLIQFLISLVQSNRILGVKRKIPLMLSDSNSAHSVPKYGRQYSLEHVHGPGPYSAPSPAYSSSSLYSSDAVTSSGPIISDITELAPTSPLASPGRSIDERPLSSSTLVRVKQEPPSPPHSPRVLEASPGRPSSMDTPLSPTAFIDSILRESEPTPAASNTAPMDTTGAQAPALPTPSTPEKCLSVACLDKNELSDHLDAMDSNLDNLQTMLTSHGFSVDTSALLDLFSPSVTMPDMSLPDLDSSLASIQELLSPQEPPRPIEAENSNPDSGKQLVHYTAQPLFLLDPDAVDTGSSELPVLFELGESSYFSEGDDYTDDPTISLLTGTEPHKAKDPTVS

[2] = P. falciparum Dd2 growth inhibitors, dose response, SYBR Green, cherry-picked samples (AID 1159567); format: functional, cell-based
[3] = biological target: T2, Rac GTPase-activating protein 1 (Homo sapiens, UniProt Q9H0H5); assay: blockers of MgcRacGAP-driven Rac1 GTP hydrolysis – biochemical, ADP Hunter fluorescence, primary and confirmatory, confirmation (AID 624330); format: functional
T2 sequence (Q9H0H5 whole entry): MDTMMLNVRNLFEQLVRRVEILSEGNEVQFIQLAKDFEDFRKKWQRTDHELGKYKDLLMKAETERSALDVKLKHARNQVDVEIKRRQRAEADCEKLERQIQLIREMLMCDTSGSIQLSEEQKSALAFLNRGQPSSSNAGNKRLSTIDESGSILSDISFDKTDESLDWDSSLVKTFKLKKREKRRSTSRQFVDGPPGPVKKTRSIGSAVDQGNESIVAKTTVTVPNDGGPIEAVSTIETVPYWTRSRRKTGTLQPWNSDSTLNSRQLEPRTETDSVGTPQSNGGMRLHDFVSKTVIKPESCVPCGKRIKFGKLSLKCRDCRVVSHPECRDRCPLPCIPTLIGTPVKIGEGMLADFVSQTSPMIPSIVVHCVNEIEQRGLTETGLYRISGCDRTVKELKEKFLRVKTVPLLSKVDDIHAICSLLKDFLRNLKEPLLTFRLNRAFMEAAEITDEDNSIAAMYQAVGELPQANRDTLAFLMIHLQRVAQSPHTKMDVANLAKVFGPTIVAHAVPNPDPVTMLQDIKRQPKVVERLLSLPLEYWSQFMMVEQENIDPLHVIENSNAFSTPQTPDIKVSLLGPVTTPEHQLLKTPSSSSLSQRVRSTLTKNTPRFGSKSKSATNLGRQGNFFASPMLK

[4] = tested on: Streptococcus sp. 'group A'; assay: Streptococcus pyogenes SK(-)GAS viability under kanamycin – luminescence, BacTiterGlo, confirmation, counter-screen for streptokinase expression inhibitor project, dose response (AID 1900); format: functional, organism-based
Streptokinase A = biological target: T3, Streptokinase A (Streptococcus pyogenes serotype M1, UniProt P10520); assay: viability-normalized secreted streptokinase activity reduction – plasminogen activation absorbance, OD405, dose response (AID 1914); format: functional, Streptococcus pyogenes M1 GAS;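 note: secreted streptokinase activity via plasminogen activation per viability signal from cell pellet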
T3 sequence (P10520 whole entry): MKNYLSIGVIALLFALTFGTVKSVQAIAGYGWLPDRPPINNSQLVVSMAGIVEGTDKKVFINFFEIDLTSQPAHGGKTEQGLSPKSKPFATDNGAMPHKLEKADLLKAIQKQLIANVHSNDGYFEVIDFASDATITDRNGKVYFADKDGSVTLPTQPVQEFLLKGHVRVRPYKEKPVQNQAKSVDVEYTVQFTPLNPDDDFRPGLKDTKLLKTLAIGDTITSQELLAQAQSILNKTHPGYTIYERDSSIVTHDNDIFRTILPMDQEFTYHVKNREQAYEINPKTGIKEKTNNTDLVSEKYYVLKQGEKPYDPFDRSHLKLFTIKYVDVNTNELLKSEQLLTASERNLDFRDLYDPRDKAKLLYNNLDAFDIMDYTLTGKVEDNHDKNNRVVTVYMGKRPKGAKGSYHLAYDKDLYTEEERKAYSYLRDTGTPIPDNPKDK

Streptococcus = assay: GAS UMAA2166 growth inhibition – luminescence, BacTiterGlo, counter-screen for streptokinase expression inhibitor project, dose response (AID 1915); format: functional, organism-based;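 note: potency for reduction of bacterial viability or growth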
[5] = Luminescence Cell-Based Dose Retest to Confirm Inhibitors of Cancer Stem Cells. [Related pubchem assays (depositor defined):AID2717, AID2721]; format: functional; details: Homo sapiens
[6] = viability of uninfected HEp-2 cells – cell-based, HTS, cytotoxicity control for RSV inhibitor project, dose response (AID 2410); format: functional; details: human respiratory syncytial virus
Cytochrome P450 1A2 = biological target: T4, Cytochrome P450 1A2 (Homo sapiens, UniProt P05177);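 note: PubChem cytochrome P450 panel assay, CYP1A2 panel member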
T4 sequence (P05177 whole entry): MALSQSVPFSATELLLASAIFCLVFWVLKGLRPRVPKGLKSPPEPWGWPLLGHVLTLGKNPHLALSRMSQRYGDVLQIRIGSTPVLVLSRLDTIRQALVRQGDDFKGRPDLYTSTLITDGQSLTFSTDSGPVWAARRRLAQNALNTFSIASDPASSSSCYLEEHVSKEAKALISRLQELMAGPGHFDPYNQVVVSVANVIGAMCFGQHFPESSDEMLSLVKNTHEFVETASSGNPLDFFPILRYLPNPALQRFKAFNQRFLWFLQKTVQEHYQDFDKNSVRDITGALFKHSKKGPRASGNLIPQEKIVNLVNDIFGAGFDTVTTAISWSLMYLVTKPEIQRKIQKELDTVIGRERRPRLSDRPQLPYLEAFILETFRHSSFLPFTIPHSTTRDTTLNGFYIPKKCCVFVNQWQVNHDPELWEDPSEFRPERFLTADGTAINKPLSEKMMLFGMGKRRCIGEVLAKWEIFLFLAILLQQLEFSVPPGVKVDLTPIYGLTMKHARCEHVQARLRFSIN

[7] = Trypanosoma cruzi growth suppression in host cells – NIH3T3 host cells, beta-gal luminescence, confirmation (AID 2044); format: functional, cell-based;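 note: intracellular parasites grown in NIH/3T3 mouse fibroblasts as host cells; luminescent beta-galactosidase reporter signal from transgenic T. cruzi replicating inside host cells; inhibitors lower the luminescence signal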
[8] = NIH3T3 cell viability loss – ATP luminescence, mouse fibroblasts, counter-screen, dose response (AID 2010); format: functional, cell-based;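 note: cells exposed to compound for about 90 hours before reading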

C[C@H](CCC(=O)O)[C@H]1CC[C@H]2[C@@H]3CC[C@@H]4CC(=O)CC[C@]4(C)[C@H]3CC(=O)[C@]12C
EC50 [1]: > 260 µM (inactive)

O=C(NNc1cccc(Cl)n1)Nc1ccc(Cl)cc1
EC50 [1]: > 260 µM (inactive)

CCC(=O)N1CC2(C1)CN(Cc1cccc(Cl)c1)[C@H](CO)c1c2c2ccc(OC)cc2n1C
AC50 [2]: 10.5 µM (active)

Cc1cccc(NC(=O)CCc2c(C)nn(-c3ccc(N4CCCCC4)nn3)c2C)c1
EC50 [1]: > 260 µM (inactive)

CCC(=O)N1CCC2(CC1)CN(Cc1ccc(Cl)cc1)[C@H](CO)c1[nH]c3cc(OC)ccc3c12
AC50 [2]: 3.07 µM (active)

Cc1ccccc1C(=O)Nc1ccc(N2CCCC2)cc1
IC50 [3]: 79.7 µM (active)

O=[N+]([O-])c1ccc(-c2csc(Nc3ccccc3)[n+]2Cc2ccccc2)cc1
EC50 [1]: 131 µM (active)

CN(C)c1ccc(C=Cc2cnccn2)cc1
IC50 [3]: 38.6 µM (active)

CCC(C)N1C(=O)/C(=C/NNc2ccccc2)C(=O)NC1=S (centres undefined)
EC50 [4]: > 150 µM (not active) | EC50 (Streptokinase A): > 150 µM (not active) | EC50 (Streptococcus): > 150 µM (not active) | AC50 [5]: 2.24 µM (active)

CCOC(=O)c1c(C)[nH]c(C(=O)CN2CCN(CC)CC2)c1C
IC50 [3]: 60.6 µM (active)

COc1cccc(CN2[C@@H](CO)[C@H](c3ccccc3)C23CN(C(=O)C2CCCC2)C3)c1
AC50 [2]: 5.77 µM (active)

c1ccc(-c2cc(-c3ccc(N4CCOCC4)cc3)nc3ccccc23)cc1
CC50 [6]: > 50 µM (active)

CCn1cc(C2=NC(c3ccccc3)CO2)c2ccccc21 (centres undefined)
CC50 [6]: 14.8 µM (active)

CCOC(=O)N1CCC(/N=c2\c(O)c(O)\c2=N/c2cccc(CC)c2)CC1
CC50 [6]: 39.3 µM (active)

COc1ccccc1C(=O)NCCCNC(=O)c1ccccn1
EC50 [1]: > 260 µM (inactive)

CN(C)CCCn1c(SCc2ccc(Cl)cc2)nnc1-c1ccncc1
IC50 [3]: 121 µM (active)

CNC[C@H]1Oc2ncc(-c3ccc(OC)cc3)cc2C(=O)N([C@H](C)CO)C[C@H]1C
AC50 [2]: 7.75 µM (active)

CC(c1ccc(F)cc1)n1c(S)nnc1Cn1ncc2ccccc2c1=O (centres undefined)
EC50 [1]: > 260 µM (inactive)

CCOc1ccc(CNC(=O)c2cccc(NC(=O)C3=C(C)OCCS3)c2)cc1
EC50 [1]: > 260 µM (inactive)

O=C(c1ccc(N2CCN(C3CC(=O)N(Cc4cccs4)C3=O)CC2)cc1)c1cccnc1 (centres undefined)
CC50 [6]: 24.4 µM (active)

Cc1ccc(C)c(-c2cc(C(=O)Nc3sc(C)c(C)c3C(N)=O)c3ccccc3n2)c1
CC50 [6]: 9.97 µM (active) | EC50 [4]: 2.81 µM (active) | EC50 (Streptokinase A): 4.64 µM (active) | EC50 (Streptococcus): > 150 µM (not active) | AC50 (Cytochrome P450 1A2): 3.16 µM (inconclusive)

CCOc1cc(CNc2ccc3c(c2)OCCO3)cc(Br)c1OCC(N)=O
IC50 [3]: 99.3 µM (active)

OC[C@H]1[C@@H](c2ccc(-c3cccnc3)cc2)[C@H]2CN(CC3CC3)CCCCN21
AC50 [2]: 6.52 µM (active)

O=C1N=C(Nc2ccc(Cl)cc2)SC1Cc1cccc(Cl)c1Cl (centres undefined)
EC50 [4]: 3.91 µM (active) | EC50 (Streptokinase A): 131 µM (active) | EC50 (Streptococcus): > 150 µM (not active) | AC50 [5]: 13.2 µM (active)

O=C(Nc1ccccn1)c1ccc2ccccc2c1O
IC50 [3]: 73 µM (active)

Cc1ccc2c(c1)/C(=C/c1ccc(F)cc1)C(=O)N2
EC50 [1]: > 260 µM (inactive)

COc1cc(/C=C/C(C)=NNc2ccccc2)ccc1O
IC50 [3]: 51.9 µM (active)

COC(=O)/C(C#N)=C/c1c(N2CCCCCC2)nc2c(C)cccn2c1=O
EC50 [1]: > 260 µM (inactive)

CCCC(O)(c1ccc(Br)cc1)C(CN1CCOCC1)c1ccc(Cl)cc1 (centres undefined)
EC50 [4]: 7.94 µM (active) | EC50 (Streptokinase A): 12.1 µM (active) | EC50 (Streptococcus): 72.1 µM (active)

CC(C)NC(=O)N1CCCCN2[C@H](CO)[C@@H](c3ccc(C#C[C@H](C)O)cc3)[C@@H]2C1
AC50 [2]: 19.5 µM (active)

Cc1ccccc1[C@@]1(C)ON(c2ccccc2C(F)(F)F)C1=O
CC50 [6]: 21.9 µM (active)

COc1cccc(CN2[C@@H](CO)[C@H](c3ccccc3)C23CN(C(=O)C2CCOCC2)C3)c1
AC50 [2]: 7.03 µM (active)

Cc1cccc(NC(=O)c2[nH]cnc2C(=O)N[C@@H](Cc2ccccc2)C(=O)OCc2ccccc2)c1
CC50 [6]: 46.3 µM (active)

Cc1cccc(C)c1NC(=S)N/N=C/c1ccc(OCCC(C)C)cc1
EC50 [4]: 8.34 µM (active) | EC50 (Streptokinase A): 16.9 µM (active) | EC50 [7]: 2.02 µM (active) | EC50 [8]: > 60 µM (inconclusive) | EC50 (Streptococcus): 21.9 µM (active)

Cc1ccc(OCC(=O)N2CCN(CC3CC4C=CC3C4)CC2)cc1 (centres undefined)
IC50 [3]: 293 µM (active)

Cc1ccc(-n2nc3c(=O)n(CCCC(=O)NCCc4ccccc4C)nc(C)c3c2C)cc1
CC50 [6]: > 50 µM (active)

COc1ccc2c3c([nH]c2c1)[C@@H](CO)N(Cc1ccccc1Cl)CC31CCN(C(=O)C2CC2)CC1
AC50 [2]: 5.82 µM (active)

Cc1ccc(-c2cnc3cc(C)nn3c2)cc1
EC50 [1]: > 260 µM (inactive)

CC(C)n1nc(C(=O)Nc2nnc(SCc3c(Cl)cccc3Cl)s2)c2ccccc2c1=O
EC50 [4]: 2.09 µM (active) | EC50 (Streptokinase A): > 150 µM (not active) | EC50 (Streptococcus): 116 µM (active)

O=C(Cn1cc(C(F)(F)F)ccc1=O)N/N=C/c1ccc(O)cc1
IC50 [3]: 95.1 µM (active)

CO[C@H]1CN(C)C(=O)c2ccc(NC(=O)c3cccc(Oc4ccccc4)c3)cc2OC[C@@H](C)NC[C@H]1C
AC50 [2]: 7.72 µM (active)
